Results taken from the supplement of paper PMC11451515.

Tested on: SEM cells
Experiment: cell viability relative to DMSO control; higher = less cytotoxic
Conditions: 48 h
Method in brief: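 Viability values are per-plate percentages of DMSO wells, with background from cell-free wells. Library compounds in DMSO were pin-dosed, in an 11-point threefold series from 47 μM to 0.79 nM, onto NOMO1 or SEM (500 cells/well) or P12-Ichikawa (1000 cells/well) leukemia cells in 1536-well plates (5 μl). Those cells had been adapted for at least four passages in each medium, and CellTiter-Glo One luminescence was read after 48 h at 37°C.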

[1] = HPLM + 10% dialyzed FBS, 0.000781 µM
[2] = HPLM + 10% dialyzed FBS, 0.00234 µM
[3] = HPLM + 10% dialyzed FBS, 0.00702 µM
[4] = HPLM + 10% dialyzed FBS, 0.0211 µM
[5] = HPLM + 10% dialyzed FBS, 0.0632 µM
[6] = HPLM + 10% dialyzed FBS, 0.19 µM
[7] = HPLM + 10% dialyzed FBS, 0.569 µM
[8] = HPLM + 10% dialyzed FBS, 1.71 µM
[9] = HPLM + 10% dialyzed FBS, 5.12 µM
[10] = HPLM + 10% dialyzed FBS, 15.4 µM
[11] = HPLM + 10% dialyzed FBS, 46.1 µM
[12] = RPMI 5 mM glucose + 10% FBS, 0.000781 µM
[13] = RPMI 5 mM glucose + 10% FBS, 0.00234 µM
[14] = RPMI 5 mM glucose + 10% FBS, 0.00702 µM
[15] = RPMI 5 mM glucose + 10% FBS, 0.0211 µM
[16] = RPMI 5 mM glucose + 10% FBS, 0.0632 µM
[17] = RPMI 5 mM glucose + 10% FBS, 0.19 µM
[18] = RPMI 5 mM glucose + 10% FBS, 0.569 µM
[19] = RPMI 5 mM glucose + 10% FBS, 1.71 µM
[20] = RPMI 5 mM glucose + 10% FBS, 5.12 µM
[21] = RPMI 5 mM glucose + 10% FBS, 15.4 µM
[22] = RPMI 5 mM glucose + 10% FBS, 46.1 µM
[23] = RPMI 5 mM glucose + 10% dialyzed FBS, 0.000781 µM
[24] = RPMI 5 mM glucose + 10% dialyzed FBS, 0.00234 µM
[25] = RPMI 5 mM glucose + 10% dialyzed FBS, 0.00702 µM
[26] = RPMI 5 mM glucose + 10% dialyzed FBS, 0.0211 µM
[27] = RPMI 5 mM glucose + 10% dialyzed FBS, 0.0632 µM
[28] = RPMI 5 mM glucose + 10% dialyzed FBS, 0.19 µM
[29] = RPMI 5 mM glucose + 10% dialyzed FBS, 0.569 µM
[30] = RPMI 5 mM glucose + 10% dialyzed FBS, 1.71 µM
[31] = RPMI 5 mM glucose + 10% dialyzed FBS, 5.12 µM
[32] = RPMI 5 mM glucose + 10% dialyzed FBS, 15.4 µM
[33] = RPMI 5 mM glucose + 10% dialyzed FBS, 46.1 µM

SMILES | cell viability [1] [%] | cell viability [2] [%] | cell viability [3] [%] | cell viability [4] [%] | cell viability [5] [%] | cell viability [6] [%] | cell viability [7] [%] | cell viability [8] [%] | cell viability [9] [%] | cell viability [10] [%] | cell viability [11] [%] | cell viability [12] [%] | cell viability [13] [%] | cell viability [14] [%] | cell viability [15] [%] | cell viability [16] [%] | cell viability [17] [%] | cell viability [18] [%] | cell viability [19] [%] | cell viability [20] [%] | cell viability [21] [%] | cell viability [22] [%] | cell viability [23] [%] | cell viability [24] [%] | cell viability [25] [%] | cell viability [26] [%] | cell viability [27] [%] | cell viability [28] [%] | cell viability [29] [%] | cell viability [30] [%] | cell viability [31] [%] | cell viability [32] [%] | cell viability [33] [%]
Cc1ccc(NC(=O)c2ccc(CN3CCN(C)CC3)cc2)cc1Nc1nccc(-c2cccnc2)n1 | 68.4 | 92.2 | 114 | 101 | 104 | 111 | 96.5 | 101 | 99.2 | 101 | 93.9 | 81.2 | 114 | 134 | 134 | 124 | 140 | 115 | 114 | 109 | 110 | 99.4 | 72 | 103 | 100 | 94.7 | 114 | 107 | 96.6 | 112 | 80.1 | 100 | 86.6
COc1cc2nccc(Oc3ccc(NC(=O)Nc4cc(C)on4)c(Cl)c3)c2cc1OC | 112 | 116 | 107 | 107 | 114 | 102 | 100 | 71.2 | 64.1 | 59.9 | 33.1 | 86.4 | 85.2 | 79.9 | 74.3 | 82.1 | 72.5 | 73.9 | 49.6 | 33 | 31.3 | 14.1 | 112 | 125 | 123 | 107 | 108 | 115 | 112 | 71.5 | 61.3 | 43 | 20.1
Cl.c1cnc2cc3c(cc2n1)C1CNCC3C1 | 98.5 | 102 | 104 | 104 | 118 | 113 | 114 | 122 | 108 | 113 | 119 | 98.7 | 94.4 | 91.3 | 105 | 111 | 117 | 111 | 105 | 97.7 | 110 | 120 | 101 | 93.4 | 111 | 121 | 122 | 126 | 115 | 135 | 113 | 111 | 103
C#CCN(C)[C@H](C)Cc1ccccc1 | 32.3 | 83.6 | 87.3 | 83.5 | 70.2 | 91.8 | 93.1 | 90.2 | 89.5 | 87.2 | 92.5 | 34.7 | 91.5 | 103 | 107 | 83.4 | 95.9 | 62.6 | 70.9 | 95.7 | 86.3 | 90.5 | 27.1 | 89.6 | 99.3 | 97.9 | 70.8 | 89.6 | 81.1 | 86.9 | 89.1 | 93.8 | 86
C=C(C)[C@@H]1CC[C@]2(C)CC[C@]3(C)[C@H](CC[C@@H]4[C@@]5(C)CC[C@H](O)C(C)(C)[C@@H]5CC[C@]43C)[C@@H]12 | 86.4 | 103 | 101 | 91.6 | 89 | 100 | 11 | 109 | 111 | 123 | 121 | 97.5 | 107 | 112 | 103 | 104 | 113 | 10 | 110 | 135 | 126 | 124 | 81.3 | 98.5 | 104 | 99.3 | 102 | 108 | 8.47 | 111 | 101 | 90.5 | 104
Clc1ccc(C2(c3ccc(-c4cn[nH]c4)cc3)CCNCC2)cc1 | 79.1 | 97.2 | 83.5 | 106 | 88.8 | 96.4 | 73.7 | 87.4 | 77.7 | 40.1 | 39.9 | 95.1 | 99 | 110 | 108 | 96.1 | 100 | 98.7 | 102 | 95.9 | 56.7 | 61 | 88.3 | 91.9 | 90.7 | 92.7 | 80.5 | 90.7 | 71.8 | 89.5 | 80.1 | 57.1 | 46.5
O=[N+]([O-])c1cn2c(n1)OC[C@@H](OCc1ccc(OC(F)(F)F)cc1)C2 | 105 | 97.3 | 108 | 115 | 109 | 101 | 96.3 | 89 | 86.7 | 92.4 | 90.5 | 120 | 112 | 118 | 144 | 117 | 129 | 137 | 125 | 114 | 122 | 132 | – | – | – | – | – | – | – | – | – | – | –
O=C(O)c1ccccc1C(=O)Nc1ccc(-c2ccccc2)cc1 | 63.8 | 130 | 117 | 124 | 119 | 118 | 130 | 124 | 127 | 128 | 88.5 | – | – | – | – | – | – | – | – | – | – | – | – | – | – | – | – | – | – | – | – | – | –
CC/1=C/N([C@@H]2C[C@@H](O)[C@H](CO)O2)C(=O)NC1=O | 78.6 | 82 | 71.8 | 94.7 | 74 | 75.8 | 86.4 | 84.1 | 54.1 | 67.9 | 30.7 | 113 | 97.1 | 100 | 97.4 | 76.5 | 99.3 | 115 | 95.8 | 53.2 | 80.4 | 38 | 81.7 | 74.4 | 76.5 | 79.2 | 45.6 | 64.3 | 73.7 | 62.3 | 44.3 | 56.9 | 29.3
C[N]1C=NC=C1[C@@](N)(C2=CC=C(Cl)C=C2)C3=CC=C4N(C)C(=O)\C=C(\C5=CC=CC(=C5)Cl)C4=C3 | 112 | 126 | 111 | 103 | 65.5 | 53.1 | 50.7 | 48.5 | 49.2 | 39.8 | 28.6 | 105 | 116 | 109 | 101 | 72.2 | 43.9 | 51.7 | 43.7 | 40.6 | 33.9 | 13.6 | 105 | 102 | 97.9 | 108 | 98.5 | 71 | 65.9 | 62.8 | 55 | 49.7 | 22.3
C1Cc2[nH]nc(-c3nn[nH]n3)c2C1 | 91.4 | 101 | 113 | 114 | 107 | 104 | 128 | 128 | 120 | 116 | 100 | 112 | 122 | 119 | 128 | 125 | 137 | 129 | 163 | 136 | 145 | 140 | 115 | 129 | 125 | 127 | 141 | 162 | 145 | 141 | 149 | 144 | 162
CC1(C)[C@@H](O[C@H]2O[C@H](C(=O)O)[C@@H](O)[C@H](O)[C@H]2O[C@@H]2O[C@H](C(=O)O)[C@@H](O)[C@H](O)[C@H]2O)CC[C@]2(C)[C@H]3C(=O)C=C4[C@@H]5C[C@@](C)(C(=O)O)CC[C@]5(C)CC[C@@]4(C)[C@]3(C)CC[C@@H]12 | 116 | 113 | 117 | 104 | 145 | 114 | 143 | 128 | 150 | 165 | 163 | – | – | – | – | – | – | – | – | – | – | – | – | – | – | – | – | – | – | – | – | – | –
COC(=O)N1CCN(Cc2cccc(NC(=O)Nc3ccc(C)nc3)c2F)CC1 | 96.1 | 95.2 | 105 | 108 | 99.2 | 105 | 86.7 | 100 | 100 | 102 | 73.7 | 122 | 120 | 120 | 116 | 119 | 124 | 124 | 114 | 116 | 108 | 96 | 90.3 | 107 | 109 | 106 | 94.7 | 112 | 94.6 | 90.1 | 90.7 | 86.4 | 65.3
Cc1ccc(C(C)(O)c2nc3ccccc3s2)c(C)c1 (stereo not given) | 75.7 | 95.1 | 106 | 82.9 | 108 | 114 | 6.4 | 76.6 | 94.2 | 62.4 | 63.5 | 91.7 | 110 | 94.2 | 102 | 107 | 123 | 7.03 | 70.7 | 102 | 61.2 | 63.2 | 77.1 | 112 | 93.7 | 114 | 91.1 | 115 | 8 | 69.7 | 97.4 | 56.5 | 56.6
O=C(NC1CCOCC1)c1ccc(-c2cc(-c3c[nH]nc3-c3ccccn3)ccn2)cc1 | 106 | 108 | 108 | 115 | 117 | 120 | 114 | 112 | 105 | 120 | 114 | 124 | 116 | 124 | 121 | 118 | 132 | 104 | 120 | 118 | 122 | 122 | 98.7 | 108 | 110 | 111 | 104 | 105 | 106 | 104 | 113 | 110 | 123
